We go through 38 molecules from patent US7425640B2, “Substituted 5-carboxyamide pyrazoles and [1,2,4]triazoles as antiviral agents” (priority 2004, dated 2008).

Sequence of HCV RNA-dependent RNA polymerase NS5B (Δ21) (P26663 2420-2989, stated change not applied): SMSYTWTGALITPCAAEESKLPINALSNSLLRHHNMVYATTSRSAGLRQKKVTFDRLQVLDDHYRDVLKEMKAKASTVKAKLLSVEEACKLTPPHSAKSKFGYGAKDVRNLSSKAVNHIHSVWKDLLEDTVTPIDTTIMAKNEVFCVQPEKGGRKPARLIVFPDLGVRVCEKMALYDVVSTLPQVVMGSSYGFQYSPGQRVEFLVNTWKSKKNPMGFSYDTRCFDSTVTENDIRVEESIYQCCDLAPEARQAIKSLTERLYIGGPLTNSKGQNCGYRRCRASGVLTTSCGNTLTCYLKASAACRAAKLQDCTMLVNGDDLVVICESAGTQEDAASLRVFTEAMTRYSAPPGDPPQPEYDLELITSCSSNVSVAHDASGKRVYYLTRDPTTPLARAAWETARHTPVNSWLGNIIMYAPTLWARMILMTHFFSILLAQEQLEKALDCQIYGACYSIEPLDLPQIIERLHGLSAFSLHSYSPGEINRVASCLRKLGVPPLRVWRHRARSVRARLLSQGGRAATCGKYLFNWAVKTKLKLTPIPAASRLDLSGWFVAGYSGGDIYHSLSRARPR

The first assay has as its target HCV RNA-dependent RNA polymerase NS5B (Δ21) (Hepatitis C virus genotype 1b, UniProt P26663). Briefly: Assay for HCV RNA-dependent RNA polymerase activity (SPA, [3H]-GTP incorporation). To be noted: read-out: Δ21 Activity (IC50 μM); 50 nM NS5B (Δ21), class symbols. In kind it is biochemical. As for the experimental part: Inhibitory activity of the present compounds against HCV RNA-dependent RNA polymerase was assayed according to the methods disclosed in United States Patent Application US2004/038993, content of which is incorporated herein by reference; and those described in Ferrari, E.; Wright-Minogue, J.; Fang, J. W. S.; Baroudy, B. M.; Lau, J. Y. N.; Hong, Z. J. Virol. 1999, 73, 1649.
Briefly, 50 μl reactions containing 20 mM HEPES (pH 7.3), 7.5 mM DTT, 20 units/ml RNasIN, 0.5 μg/ml biotinylated oligoG12, 5 μg/ml polyC, 5 μM GTP, 20 μCi/ml [^3H]-GTP, 10 mM MgCl2, 60 mM NaCl, 100 μg/ml BSA, and 50 nM NS5B (Δ21) were incubated at room temperature for three hours in 96-well plates with or without test compounds. Assay was terminated by the addition of 50 μl 10 mg/ml streptavidin-coated SPA beads supplemented with 100 mM EDTA, and the incorporation of labeled GTP determined by a TopCount Scintillation Counter. IC50 values were calculated from single experiments using 11 serial 2-fold dilutions (0.05-50 μM), and data were considered reliable only when the IC50 value of a positive internal control was within standard deviation range.
For the molecule `CC(CNC(=O)c1cc(C(=O)N[C@H]2CCCC[C@@H]2OCc2ccccc2)n(CC(=O)N[C@H]2CCCC[C@@H]2OCc2ccccc2)n1)c1ccccc1` (some centres unmarked) [Compound 117], the IC50 is 0.1 to 1 µM.
The same measure, in the same setting: as for `O=C(Cn1nc(C(=O)Nc2nnn[nH]2)nc1C(=O)N[C@H]1CCCC[C@@H]1OCc1ccccc1)N[C@H]1CCCC[C@@H]1OCc1ccccc1` [Compound 115], the figure is 0.1 to 1 µM.
On the same count and under the same terms, next, `CN(C(=O)Cn1nc(C(=O)O)cc1C(=O)N(C)[C@H]1CCCC[C@@H]1OCc1ccccc1)[C@H]1CCCC[C@@H]1OCc1ccccc1` [Compound 158]: 0.1 to 1 µM.
Still for that read-out and setting: next, `CC(=O)Nc1ccc(S(=O)(=O)Nc2cc(C(=O)N[C@H]3CCCC[C@@H]3OCc3ccccc3)n(CC(=O)N[C@H]3CCCC[C@@H]3OCc3ccccc3)n2)cc1` [Compound 82]: 0.1 to 1 µM; `Cc1c(Cl)cccc1S(=O)(=O)Nc1cc(C(=O)N[C@H]2CCCC[C@@H]2OCc2ccccc2)n(CC(=O)N[C@H]2CCCC[C@@H]2OCc2ccccc2)n1` [Compound 67]: 0.1 to 1 µM.
Consider `CN(C(=O)Cn1nc(C(=O)O)cc1C(=O)N[C@H]1CCCC[C@@H]1OCc1ccccc1)[C@H]1CCCC[C@@H]1OCc1ccccc1` [Compound 123], for which the IC50 fell in the range of 0.1 to 1 µM.
In the case of `O=C(Cn1nc(C(=O)NCc2cccc(Cl)c2)cc1C(=O)N[C@H]1CCCC[C@@H]1OCc1ccccc1)N[C@H]1CCCC[C@@H]1OCc1ccccc1` [Compound 70], the concentration for half-maximal inhibition (IC50) lay within 0.1 to 1 µM.
With `O=C(Cn1nc(C(=O)N(c2ccccc2)c2ccccc2)cc1C(=O)N[C@H]1CCCC[C@@H]1OCc1ccccc1)N[C@H]1CCCC[C@@H]1OCc1ccccc1` [Compound 159], the IC50 lay in the range of 0.1 to 1 µM.
Consider `CCOC(=O)c1cc(C(=O)N[C@H]2CCCC[C@@H]2OCc2ccccc2)n(CC(=O)Nc2cc(C)ccc2OCC2CCCC2)n1` [Compound 99], for which the 50% inhibitory concentration (IC50) lay within 0.1 to 1 µM.
The same measure, in the same setting: next, `CC(NC(=O)c1cc(C(=O)N[C@H]2CCCC[C@@H]2OCc2ccccc2)n(CC(=O)N[C@H]2CCCC[C@@H]2OCc2ccccc2)n1)c1ccccc1` (some centres unmarked) [Compound 95]: 0.1 to 1 µM; `CNC(=O)Nc1cc(C(=O)N[C@H]2CCCC[C@@H]2OCc2ccccc2)n(CC(=O)N[C@H]2CCCC[C@@H]2OCc2ccccc2)n1` [Compound 135]: 0.1 to 1 µM.
The same measure, in the same setting: as for `Cc1ccc(OCC2CC2)c(NC(=O)c2cc(C(=O)O)nn2CC(=O)N[C@H]2CCCC[C@@H]2OCc2ccccc2)c1` [Compound 76], the figure is 0.1 to 1 µM.
Consider `CCCCNC(=O)Nc1cc(C(=O)N[C@H]2CCCC[C@@H]2OCc2ccccc2)n(CC(=O)N[C@H]2CCCC[C@@H]2OCc2ccccc2)n1` [Compound 124], for which the IC50 lay in the range of 0.1 to 1 µM.
Consider `CC(=O)c1cc(C(=O)N[C@H]2CCCC[C@@H]2OCc2ccccc2)n(CC(=O)N[C@H]2CCCC[C@@H]2OCc2ccccc2)n1` [Compound 126], for which the half-inhibitory concentration (IC50) was 0.1 to 1 µM.
As for `Cc1nn(C)c(Cl)c1S(=O)(=O)Nc1cc(C(=O)N[C@H]2CCCC[C@@H]2OCc2ccccc2)n(CC(=O)N[C@H]2CCCC[C@@H]2OCc2ccccc2)n1` [Compound 112], the IC50 lay within 0.1 to 1 µM.
On the same count and under the same terms, next, `O=C(Cn1nc(C(=O)NC2CC2)cc1C(=O)N[C@H]1CCCC[C@@H]1OCc1ccccc1)N[C@H]1CCCC[C@@H]1OCc1ccccc1` [Compound 122]: 0.1 to 1 µM.
With `O=C(Cn1nc(C(=O)NC2CCCCC2)cc1C(=O)N[C@H]1CCCC[C@@H]1OCc1ccccc1)N[C@H]1CCCC[C@@H]1OCc1ccccc1` [Compound 83], the IC50 lay in the range of 0.1 to 1 µM.

Staying with this assay, now noted: Δ21 Activity (IC50 μM), 50 nM NS5B (Δ21), class symbols.
The molecule `O=C(Cn1nc(NS(=O)(=O)c2ccccc2Br)cc1C(=O)N[C@H]1CCCC[C@@H]1OCc1ccccc1)N[C@H]1CCCC[C@@H]1OCc1ccccc1` [Compound 32] yielded an IC50 of 0.05 to 0.1 µM.
The molecule `C=CCOc1ccccc1NC(=O)Cn1nc(C(=O)O)cc1C(=O)N[C@H]1CCCC[C@@H]1OCc1ccccc1` [Compound 171] had an IC50 of over 1 µM.
The molecule `O=C(O)c1cc(C(=O)N[C@H]2CCCC[C@@H]2OCc2ccccc2)n(CC(=O)N2CCC[C@@H]2COCc2ccccc2)n1` [Compound 198] returned a half-inhibitory concentration (IC50) of over 1 µM.
`O=C(Cn1nc(C(=O)NC2CCCc3ccccc32)cc1C(=O)N[C@H]1CCCC[C@@H]1OCc1ccccc1)N[C@H]1CCCC[C@@H]1OCc1ccccc1` (some centres unmarked) [Compound 173] displayed a half-maximal inhibitory concentration (IC50) of over 1 µM.
Molecule `N#CNC(=O)c1cc(C(=O)Nc2ccccc2OCc2ccccc2)n(CC(=O)N[C@H]2CCCC[C@@H]2OCc2ccccc2)n1` [Compound 6] showed an IC50 of under 0.05 µM.
Still for that read-out and setting: next, `Cc1ccc(OCC2CCC2)c(NC(=O)Cn2nc(C(=O)O)cc2C(=O)N[C@H]2CCCC[C@@H]2OCc2ccccc2)c1` [Compound 43]: 0.05 to 0.1 µM; `O=C(Cn1nc(-c2cccs2)cc1C(=O)N[C@H]1CCCC[C@@H]1OCc1ccccc1)N[C@H]1CCCC[C@@H]1OCc1ccccc1` [Compound 170]: over 1 µM; `O=Cc1cc(C(=O)N[C@H]2CCCC[C@@H]2OCc2ccccc2)n(CC(=O)N[C@H]2CCCC[C@@H]2OCc2ccccc2)n1` [Compound 189]: over 1 µM.
Turning to `C[C@H](NC(=O)c1cc(C(=O)N[C@H]2CCCC[C@@H]2OCc2ccccc2)n(CC(=O)N[C@H]2CCCC[C@@H]2OCc2ccccc2)n1)c1cccc2ccccc12` [Compound 27], the IC50 is 0.05 to 0.1 µM.
On the same count and under the same terms, next, `O=C(Cn1nc(NS(=O)(=O)c2ccc(Cl)cc2)cc1C(=O)N[C@H]1CCCC[C@@H]1OCc1ccccc1)N[C@H]1CCCC[C@@H]1OCc1ccccc1` [Compound 11]: under 0.05 µM.
The same measure, in the same setting: next, `CCOC(=O)c1cc(C(=O)N[C@H]2CCCC[C@@H]2NCc2ccccc2)n(CC(=O)N[C@H]2CCCC[C@@H]2OCc2ccccc2)n1` [Compound 174]: over 1 µM; `O=C(Cn1nc(C(=O)NCCc2ccccn2)cc1C(=O)N[C@H]1CCCC[C@@H]1OCc1ccccc1)N[C@H]1CCCC[C@@H]1OCc1ccccc1` [Compound 176]: over 1 µM; `CCOC(=O)c1cc(C(=O)N(C)[C@H]2CCCC[C@@H]2OCc2ccccc2)n(CC(=O)N[C@H]2CCCC[C@@H]2OCc2ccccc2)n1` [Compound 181]: over 1 µM.
On the same count and under the same terms, next, `Cc1ccc(OCC2CCCC2)c(NC(=O)c2cc(C(=O)O)nn2CC(=O)N[C@H]2CCCC[C@@H]2OCc2ccccc2)c1` [Compound 2]: under 0.05 µM; `CCOC(=O)c1cc(C(=O)N[C@H]2CCCC[C@@H]2OCc2ccccc2)n(CC(=O)Nc2cc(C)ccc2OCC2CCC2)n1` [Compound 206]: over 1 µM.
In turn, `Cc1cc(C(=O)N[C@H]2CCCC[C@@H]2OCc2ccccc2)n(CC(=O)N[C@H]2CCCC[C@@H]2OCc2ccccc2)n1` [Compound 175] registered an IC50 of over 1 µM.
Regarding `Cc1ccc(OCc2ccccc2)c(NC(=O)c2nc(C(=O)O)nn2CC(=O)N[C@H]2CCCC[C@@H]2OCc2ccccc2)c1` [Compound 24], the IC50 was 0.05 to 0.1 µM.
In turn, `O=C(Cn1nc(C(=O)O)cc1C(=O)Nc1ccc(F)cc1OCC1CCCCC1)N[C@H]1CCCC[C@@H]1OCc1ccccc1` [Compound 10] registered an IC50 of under 0.05 µM.
Same read-out and setting: next, `CCOC(=O)c1cc(C(=O)N[C@H]2CCCC[C@@H]2OCc2ccccc2)n(CC(=O)Nc2ccc3c(c2)OCO3)n1` [Compound 193]: over 1 µM.
Same read-out and setting: as for `O=C(Cn1nc(C(=O)Nc2nnn[nH]2)cc1C(=O)Nc1ccccc1OCc1ccccc1)N[C@H]1CCCC[C@@H]1OCc1ccccc1` [Compound 20], the figure is 0.05 to 0.1 µM; as for `O=C(Cn1nc(C(=O)O)cc1C(=O)Nc1ccccc1OCc1ccccc1)N[C@H]1CCCC[C@@H]1OCc1ccccc1` [Compound 39], 0.05 to 0.1 µM.
